Here are results for five molecules from publication PMC8151276, “An Integrated Approach toward NanoBRET Tracers for Analysis of GPCR Ligand Engagement” (Molecules, 2021).

The target in one assay is T1, CHRM2 (Homo sapiens, UniProt P08172).
T1 construct: purchased Promega (in-house HiBiT-GPCR construct library, NanoBRET)
T1 sequence (P08172 1-466): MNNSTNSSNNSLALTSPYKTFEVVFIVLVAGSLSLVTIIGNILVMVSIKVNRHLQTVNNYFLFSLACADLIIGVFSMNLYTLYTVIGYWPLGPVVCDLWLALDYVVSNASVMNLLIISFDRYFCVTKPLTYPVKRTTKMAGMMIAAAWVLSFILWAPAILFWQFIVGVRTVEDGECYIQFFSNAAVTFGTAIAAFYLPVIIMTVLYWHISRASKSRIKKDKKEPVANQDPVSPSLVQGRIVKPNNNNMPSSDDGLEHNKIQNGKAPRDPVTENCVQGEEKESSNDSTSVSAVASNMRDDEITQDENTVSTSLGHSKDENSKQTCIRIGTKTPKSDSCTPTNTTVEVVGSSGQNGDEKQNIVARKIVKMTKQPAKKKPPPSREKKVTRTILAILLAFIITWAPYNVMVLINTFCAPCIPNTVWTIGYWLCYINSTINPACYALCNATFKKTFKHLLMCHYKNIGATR
Description: NanoBRET screen HiBiT-CHRM2 in HEK293. The format is binding. How it is done: (§1) Each tracer candidate was screened across the entire library of HiBiT-GPCR constructs using NanoBRET as the detection modality. As depicted in Figure 4A, the specificity of interactions was evaluated through decrease in BRET due to competitive displacement of a bound tracer by excess parental compound. Each tracer was analyzed for binding to each HiBiT-GPCR fusion in the absence and in the presence of competing parental compound. Briefly, HEK293 cells were transfected with HiBiT-GPCR constructs diluted into promoterless DNA to reduce expression and maximize translocation to the cell surface. Each tracer candidate was then screened at concentrations of 1 μM and 0.1 μM across cells expressing these fusions. Cells were treated for 1.5 h with tracer either alone or in the presence of 20 μM competing parental compound (i.e., control). BRET was measured upon addition of purified LgBiT and subsequent complementation with HiBiT genetically fused to a GPCR. The specificity of interactions was assessed through a decrease in BRET signal due to competitive displacement of the bound tracer. To further gauge the robustness of these interactions, the fold response over the control (i.e., BRETtracer/BRETcontrol) was calculated. We chose a 1.5-fold response, which translates to ≥7-fold signal over noise as the minimal threshold required to score an interaction as positive.
(§2) HiBiT-GPCR DNA constructs were diluted in 10 mM Tris pH 8 to a final concentration of 0.01 μg/μL, arrayed in 96-well plates and stored at −20 °C. For transfection, HEK293 cells were suspended in Opti-MEM (without phenol red) supplemented with 2% fetal bovine serum (Seradigm) and 100 units/mL penicillin–streptomycin (Gibco) at a final concentration of 220,000 cells/mL and dispensed into white 96-well plates at 90 μL/well. Subsequent transfections and screens were carried using an Agilent Bravo Automated Liquid Handling Platform. First, the 96-well HiBiT DNA arrays were diluted 25-fold in Opti-MEM (without serum or phenol red) to a final concentration of 0.0004 μg/μL and 20 μL of the diluted DNAs were transferred into new 96-well plates. Next, promoterless carrier DNA (1 μg/μL) was diluted 25-fold (0.04 μg/μL) and then dispensed into the diluted arrays at 20 μL/well. Following brief mixing, Viafect transfection reagent (Promega) diluted 16-fold into Opti-MEM was dispensed into the plates at 40 μL/well. After mixing by pipetting, plates were incubated for 10 min on the pipetting station deck. The DNA-transfection reagent complexes were then added to plates containing cells. To facilitate the screen, 10 μL of DNA-transfection reagent complexes were added in duplicates to the top 4 and bottom 4 rows, resulting in two identical 48-well arrays per plate. Plates with transfected cells were incubated for 18–20 h at 37 °C/5% CO2. A screen of each tracer across the entire library using two different concentrations requires duplicate plates of transfected cells. Depending on the number of tracers being screened, transfections can be scaled up using the same ratios. The next day, for each tracer, four 20× screening solutions in tracer dilution buffer (Promega) were prepared: two duplicates at final concentration of 20 μM and two duplicates at a final concentration of 2 μM. […] The four resulting solutions were diluted 4-fold in Opti-MEM without serum or phenol red to generate 5× solutions (5 µM and 0.5 µM tracer +/− 100 μM competing compound). To screen the library, a BioTek MultiFlo FX liquid dispenser was used to dispense 22.5 µL of tracer solution to the top 4 rows and 22.5 µL tracer + competing compound solution to the 4 bottom rows. Plates were briefly mixed on an orbital shaker and incubated for 1.5 h at room temperature. […] Plates were briefly mixed on an orbital shaker and incubated for 15 min to allow complementation.
For orientation: BRET reads energy transfer from a luciferase to a nearby fluorophore.

Another assay deals with T2, NPSR1 (Homo sapiens, UniProt Q6W5P4).
T2 construct: purchased Promega (in-house HiBiT-GPCR construct library, NanoBRET)
T2 sequence (Q6W5P4 1-371): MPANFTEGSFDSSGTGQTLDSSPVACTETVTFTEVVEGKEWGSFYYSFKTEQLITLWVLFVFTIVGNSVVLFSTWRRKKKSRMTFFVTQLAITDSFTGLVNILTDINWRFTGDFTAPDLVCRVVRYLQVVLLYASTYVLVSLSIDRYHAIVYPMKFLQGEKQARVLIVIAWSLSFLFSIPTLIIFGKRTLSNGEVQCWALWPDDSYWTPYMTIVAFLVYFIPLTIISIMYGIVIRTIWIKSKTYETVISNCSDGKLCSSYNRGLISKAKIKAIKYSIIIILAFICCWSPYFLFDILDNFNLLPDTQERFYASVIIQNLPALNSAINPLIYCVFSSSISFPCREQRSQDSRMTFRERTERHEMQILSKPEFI
The experiment in a line: NanoBRET screen HiBiT-NPSR1 in HEK293. It counts as binding. As to the method:
as §1, §2

On to `COc1ccccc1N1CCN(CCCCN2C(=O)c3ccc(CNC(=O)CCOCCOCCOCCOCCNC(=O)CCc4ccc5n4[B-](F)(F)[N+]4=C(c6ccc[nH]6)C=CC4=C5)cc3C2=O)CC1` [NAN-190-2-NB590], for which the “NanoBRET Fold Response” value amounted to 1.13 on CHRM2 (CHRM2, tracer 0.1μM); 0.90 on NPSR1 (NPSR1, tracer 0.1μM); 0.93 on NPSR1 (NPSR1, tracer 1μM).
With `O=C(CCOCCOCCOCCOCCNC(=O)CCc1ccc2n1[B-](F)(F)[N+]1=C(c3ccc[nH]3)C=CC1=C2)NCCCN1CCN(C2=Nc3ccccc3Oc3ccc(Cl)cc32)CC1` [Loxapine-a-2-NB590], the “NanoBRET Fold Response” value on CHRM2 (CHRM2, tracer 0.1μM) stood at 1.07; on CHRM2 (CHRM2, tracer 1μM), 1.04; at NPSR1 (NPSR1, tracer 0.1μM), 0.98; on NPSR1 (NPSR1, tracer 1μM), 1.04.
Turning to `CCCn1c(=O)c2[nH]c(-c3ccc(OCC(=O)NCCNC(=O)CCOCCNC(=O)c4ccc(CNC(=O)CCc5ccc6n5[B-](F)(F)[N+]5=C(c7ccc[nH]7)C=CC5=C6)cc4)cc3)nc2n(CCC)c1=O` [XAC-3-NB590], the “NanoBRET Fold Response” value stood at 1.28 on CHRM2 (CHRM2, tracer 0.1μM); 2.12 on CHRM2 (CHRM2, tracer 1μM); 0.90 on NPSR1 (NPSR1, tracer 0.1μM); 0.92 on NPSR1 (NPSR1, tracer 1μM).
Regarding `CN(C)CCC=C1c2ccccc2CCc2ccc(C(=O)NCCNC(=O)CCOCCOCCOCCOCCNC(=O)CCc3ccc4n3[B-](F)(F)[N+]3=C(c5ccc[nH]5)C=CC3=C4)cc21` [Amitriptyline-a-2-NB590], the “NanoBRET Fold Response” value came out at 1.10 on CHRM2 (tracer at 0.1μM), 0.98 on CHRM2 (tracer at 1μM), 1.01 at NPSR1 (tracer at 0.1μM) and 0.99 at NPSR1 (tracer at 1μM).
Regarding `CCOC(=O)c1cc(C#N)c(N2CCC(C(=O)NS(=O)(=O)Cc3ccccc3/C=C/C(=O)NCCNC(=O)CCc3ccc4n3[B-](F)(F)[N+]3=C(c5ccc[nH]5)C=CC3=C4)CC2)nc1C` [AZD1283-1-NB590], the “NanoBRET Fold Response” value at CHRM2 (CHRM2, 0.1μM) turned out to be 1.05; at CHRM2 (CHRM2, 1μM), 0.96; on NPSR1 (NPSR1, 0.1μM), 1.02; at NPSR1 (NPSR1, 1μM), 1.06.
